Molecular target: T1, GlgP (Streptococcus mutans, UniProt Q8DT31)
T1 construct: gene overlapping malQ by 29 nt, not the second phosphorylase phsG
T1 sequence (Q8DT31 1-758): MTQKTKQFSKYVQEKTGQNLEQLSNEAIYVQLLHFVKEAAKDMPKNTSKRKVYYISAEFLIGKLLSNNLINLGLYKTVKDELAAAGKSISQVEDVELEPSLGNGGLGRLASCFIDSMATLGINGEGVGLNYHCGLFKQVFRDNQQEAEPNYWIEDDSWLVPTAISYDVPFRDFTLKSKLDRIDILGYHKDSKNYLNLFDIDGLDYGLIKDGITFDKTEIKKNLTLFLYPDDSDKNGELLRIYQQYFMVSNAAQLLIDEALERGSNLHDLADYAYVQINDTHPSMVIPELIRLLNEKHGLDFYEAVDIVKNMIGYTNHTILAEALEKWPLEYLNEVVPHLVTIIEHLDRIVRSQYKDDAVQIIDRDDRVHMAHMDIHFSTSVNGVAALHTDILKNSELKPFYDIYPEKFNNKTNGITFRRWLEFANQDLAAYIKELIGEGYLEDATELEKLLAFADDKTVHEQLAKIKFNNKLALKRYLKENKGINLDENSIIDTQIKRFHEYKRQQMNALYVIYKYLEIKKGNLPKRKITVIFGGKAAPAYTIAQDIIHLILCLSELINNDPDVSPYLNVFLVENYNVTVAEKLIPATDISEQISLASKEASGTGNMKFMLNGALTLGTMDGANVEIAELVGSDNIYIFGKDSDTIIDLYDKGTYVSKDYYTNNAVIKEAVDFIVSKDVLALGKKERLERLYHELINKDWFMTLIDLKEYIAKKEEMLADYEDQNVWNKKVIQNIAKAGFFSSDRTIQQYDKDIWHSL
Assay: phosphorylase assay, phosphoglucomutase / glucose-6-phosphate dehydrogenase-NADP end-point at […] nm
Type: biochemical
Details: formed from 1% maltodextrin or 0.8% amylodextrin, 50 mM potassium phosphate pH 7, 0.5 mM MgCl2, 37 °C, 10 min

## O=P(O)(O)O[C@H]1O[C@H](CO)[C@@H](O)[C@H](O)[C@H]1O [glucose-1-phosphate]
  phosphorylase assay, phosphoglucomutase / glucose-6-phosphate dehydrogenase-NADP: generated glucose-1-phosphate from maltodextrin and amylodextrin

Reference: publication PMC3737437, “The malQ gene is essential for starch metabolism in Streptococcus mutans” (Journal of Oral Microbiology, 2013)
